Measured values taken from PubChem BioAssay (NCI).
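48-hour exposure; five concentrations; linearly interpolated endpoints. At the GI50, growth is halved. TGI marks complete inhibition of growth.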

Tests used:
Assay in all cases: NCI tumour cell line growth inhibition, 48 h; in the data active means GI50 below about 0.43 µM; inactive means the rest
OVCAR-8 ovarian = test system: OVCAR-8 ovarian
IGROV1 ovarian = test system: IGROV1 ovarian
RXF 393 renal = test system: RXF 393 renal
TK-10 renal = test system: TK-10 renal
CCRF-CEM leukemia = test system: CCRF-CEM leukemia
SNB-75 CNS = test system: SNB-75 CNS
CAKI-1 renal = test system: CAKI-1 renal
NCI-H226 lung = test system: NCI-H226 lung
HCT-116 colon = test system: HCT-116 colon
A549 NSCLC = test system: A549 NSCLC
MDA-MB-435 = test system: MDA-MB-435
ACHN renal = test system: ACHN renal
HOP-92 NSCLC = test system: HOP-92 NSCLC
SR leukemia = test system: SR leukemia
T-47D breast = test system: T-47D breast
HCC-2998 colon = test system: HCC-2998 colon
NCI-H23 lung = test system: NCI-H23 lung
COLO 205 colon = test system: COLO 205 colon
SK-MEL-5 melanoma = test system: SK-MEL-5 melanoma
SNB-19 CNS = test system: SNB-19 CNS
SF-539 CNS = test system: SF-539 CNS
MALME-3M melanoma = test system: MALME-3M melanoma
PC-3 prostate = test system: PC-3 prostate
OVCAR-4 ovarian = test system: OVCAR-4 ovarian
MDA-MB-231 breast = test system: MDA-MB-231 breast
HL-60(TB) leukemia = test system: HL-60(TB) leukemia
HCT-15 colon = test system: HCT-15 colon
SF-295 CNS = test system: SF-295 CNS
BT-549 breast = test system: BT-549 breast
UACC-62 melanoma = test system: UACC-62 melanoma
DU-145 prostate = test system: DU-145 prostate
K-562 leukemia = test system: K-562 leukemia
MCF7 breast = test system: MCF7 breast
EKVX NSCLC = test system: EKVX NSCLC
786-0 renal = test system: 786-0 renal
SF-268 CNS = test system: SF-268 CNS
OVCAR-3 ovarian = test system: OVCAR-3 ovarian
SK-OV-3 ovarian = test system: SK-OV-3 ovarian
UACC-257 melanoma = test system: UACC-257 melanoma
A498 renal = test system: A498 renal
M14 melanoma = test system: M14 melanoma
NCI/ADR-RES ovarian = test system: NCI/ADR-RES ovarian
SW-620 colon = test system: SW-620 colon
UO-31 renal = test system: UO-31 renal
LOX IMVI melanoma = test system: LOX IMVI melanoma
SK-MEL-2 melanoma = test system: SK-MEL-2 melanoma
RPMI-8226 leukemia = test system: RPMI-8226 leukemia
NCI-H460 lung = test system: NCI-H460 lung
U251 CNS = test system: U251 CNS
SN12C renal = test system: SN12C renal
OVCAR-5 ovarian = test system: OVCAR-5 ovarian
HT29 colon = test system: HT29 colon
MOLT-4 leukemia = test system: MOLT-4 leukemia
HS 578T breast = test system: HS 578T breast
SK-MEL-28 melanoma = test system: SK-MEL-28 melanoma
HOP-62 NSCLC = test system: HOP-62 NSCLC
KM12 colon = test system: KM12 colon
NCI-H522 lung = test system: NCI-H522 lung

COc1cc2ncn(-c3cc(OCc4ccccc4Cl)c(C(N)=O)s3)c2cc1OC
9.32 µM: TGI (SK-OV-3 ovarian)
> 15.9 µM: TGI (SK-MEL-2 melanoma)
> 22 µM: TGI (TK-10 renal)
6.47 µM: TGI (SNB-75 CNS)
1.99 µM: TGI (OVCAR-3 ovarian)
0.351 µM: TGI (MDA-MB-435)
> 22.1 µM: TGI (HCT-116 colon)
> 10.8 µM: TGI (A549 NSCLC)
> 10.3 µM: TGI (NCI/ADR-RES ovarian)
> 17 µM: TGI (BT-549 breast)
3.13 µM: TGI (SK-MEL-5 melanoma)
5.77 µM: TGI (HS 578T breast)
> 10.6 µM: TGI (CCRF-CEM leukemia)
4.22 µM: TGI (RXF 393 renal)
> 13 µM: TGI (SF-268 CNS)
0.511 µM: TGI (DU-145 prostate)
4.31 µM: TGI (SF-539 CNS)
1.13 µM: TGI (NCI-H522 lung)
> 11.2 µM: TGI (SF-295 CNS)
> 20.7 µM: TGI (OVCAR-8 ovarian)
inactive: GI50 (IGROV1 ovarian) 0.552 µM | GI50 (TK-10 renal) 3.04 µM | GI50 (SNB-75 CNS) 0.707 µM | GI50 (CAKI-1 renal) 3.02 µM | GI50 (NCI-H226 lung) 0.801 µM | GI50 (ACHN renal) 1.58 µM | GI50 (HOP-92 NSCLC) 3.8 µM | GI50 (T-47D breast) 3.78 µM | GI50 (HCC-2998 colon) 0.488 µM | GI50 (SNB-19 CNS) 1 µM | GI50 (MALME-3M melanoma) > 25 µM | GI50 (PC-3 prostate) 1 µM | GI50 (OVCAR-4 ovarian) 2.09 µM | GI50 (BT-549 breast) 1.41 µM | GI50 (EKVX NSCLC) 1.25 µM | GI50 (786-0 renal) 0.873 µM | GI50 (UO-31 renal) 1.14 µM | GI50 (SK-MEL-2 melanoma) 1.5 µM | GI50 (SN12C renal) 1.48 µM | GI50 (OVCAR-5 ovarian) 0.492 µM | GI50 (HS 578T breast) 0.609 µM | GI50 (SK-MEL-28 melanoma) 1.46 µM
active: GI50 (OVCAR-8 ovarian) 0.23 µM | GI50 (RXF 393 renal) 0.102 µM | GI50 (CCRF-CEM leukemia) 0.0781 µM | GI50 (HCT-116 colon) 0.233 µM | GI50 (A549 NSCLC) 0.29 µM | GI50 (MDA-MB-435) 0.0745 µM | GI50 (SR leukemia) 0.113 µM | GI50 (NCI-H23 lung) 0.202 µM | GI50 (COLO 205 colon) 0.111 µM | GI50 (SK-MEL-5 melanoma) 0.0993 µM | GI50 (SF-539 CNS) 0.249 µM | GI50 (MDA-MB-231 breast) 0.247 µM | GI50 (HL-60(TB) leukemia) 0.0741 µM | GI50 (HCT-15 colon) 0.269 µM | GI50 (SF-295 CNS) 0.186 µM | GI50 (UACC-62 melanoma) 0.283 µM | GI50 (DU-145 prostate) 0.105 µM | GI50 (K-562 leukemia) 0.114 µM | GI50 (MCF7 breast) 0.0885 µM | GI50 (SF-268 CNS) 0.187 µM | GI50 (OVCAR-3 ovarian) 0.0867 µM | GI50 (SK-OV-3 ovarian) 0.274 µM | GI50 (A498 renal) 0.117 µM | GI50 (M14 melanoma) 0.164 µM | GI50 (NCI/ADR-RES ovarian) 0.22 µM | GI50 (SW-620 colon) 0.102 µM | GI50 (LOX IMVI melanoma) 0.169 µM | GI50 (RPMI-8226 leukemia) 0.341 µM | GI50 (NCI-H460 lung) 0.146 µM | GI50 (U251 CNS) 0.224 µM | GI50 (HT29 colon) 0.0921 µM | GI50 (MOLT-4 leukemia) 0.118 µM | GI50 (HOP-62 NSCLC) 0.217 µM | GI50 (KM12 colon) 0.0806 µM | GI50 (NCI-H522 lung) 0.13 µM
10.4 µM: TGI (U251 CNS)
> 18.1 µM: TGI (SW-620 colon)
> 25 µM: TGI (IGROV1 ovarian) | TGI (CAKI-1 renal) | TGI (NCI-H226 lung) | TGI (ACHN renal) | TGI (HOP-92 NSCLC) | TGI (SR leukemia) | TGI (T-47D breast) | TGI (HCC-2998 colon) | TGI (COLO 205 colon) | TGI (SNB-19 CNS) | TGI (MALME-3M melanoma) | TGI (PC-3 prostate) | TGI (OVCAR-4 ovarian) | TGI (HCT-15 colon) | TGI (UACC-62 melanoma) | TGI (K-562 leukemia) | TGI (MCF7 breast) | TGI (EKVX NSCLC) | TGI (UACC-257 melanoma) | TGI (M14 melanoma) | TGI (UO-31 renal) | TGI (LOX IMVI melanoma) | TGI (RPMI-8226 leukemia) | TGI (SN12C renal) | TGI (OVCAR-5 ovarian) | TGI (HT29 colon) | TGI (MOLT-4 leukemia) | TGI (SK-MEL-28 melanoma)
> 11.8 µM: TGI (KM12 colon)
4.68 µM: TGI (NCI-H23 lung)
> 8.64 µM: TGI (NCI-H460 lung)
8.13 µM: TGI (MDA-MB-231 breast)
3.21 µM: TGI (A498 renal)
7.15 µM: TGI (HOP-62 NSCLC)
> 22.8 µM: TGI (786-0 renal)
